The target of one series is PARP3 (Homo sapiens (Human), UniProt Q9Y6F1). Put plainly: PARP fluorescence anisotropy binding assay, PARP3. A general note: In fluorescence polarisation assays a small probe gives low polarisation when free and higher when bound to something large.
Series [1] deals with T1, hERG (Homo sapiens (Human), UniProt Q12809). Put plainly: hERG IC50. (In general: Block of hERG is tested as a sign of cardiac risk.)
The target of the next series is PARP6 (Homo sapiens (Human), UniProt Q2NL67). Put plainly: PARP fluorescence anisotropy binding assay, PARP6. As for the experimental part:
Recombinant full length GST tagged PARP6 protein was diluted to 160 nM with 50 mM Tris pH 8, 0.001% Triton X100, 10 mM MgCl2, 150 mM NaCl and incubated for four hours with an equivalent volume of 6 nM fluorescent probe diluted with 50 mM Tris pH 8, 0.001% Triton X100, 10 mM MgCI2, 150 mM NaCl. The final DMSO concentration of the probe was kept below 1% (v/v).
Fluorescence anisotropy of the probe when bound to the proteins was measured using a BMG Pherastar FSX® in the presence of test compounds or solvent control and the effect on anisotropy determined. % inhibition values for different test compound concentrations were calculated and fitted to a four parameter logistic plot in order to determine the IC50 value. Where necessary, the compound K, can be determined from the IC50 value using a Munson Rodbard equation defined in Anal Biochem. 1980 Sep. 1; 107(1):220-39 and is based on the known KD of the probe binding to the relevant PARP protein

A further series concerns the target PARP1 (Homo sapiens (Human), UniProt P09874). In words: PARP fluorescence anisotropy binding assay, PARP1.
The subject of series [2] is MDCKII cells expressing MDR1 and BCRP. In words: In vitro human transporter efflux (MDCK-MDR1-BCRP). The conditions noted are these: Papp(B to A)/Papp(A to B), 90-min incubation.
Procedure: (§2) MDCKII cells expressing MDR1 and BCRP were seeded onto polyethylene membranes in 96-well Transwell insert systems at a density to form a confluent cell monolayer. […] The final percent volume of the organic solvent was less than 1%. Permeation of the test compounds from A to B direction and from B to A direction was determined over a 90-min incubation at 37° C. and 5% CO2 with a relative humidity of 95%. At the end of the incubation, samples from the apical and basolateral side were taken and then precipitated with cold acetonitrile containing internal standard. After centrifugation at 4000 rpm, the supernatant was diluted with 0.1% formic acid aqueous solution and quantified by LC-MS/MS. The integrity of the cell monolayers was confirmed by using the marker Lucifer yellow.
(§3) The permeability coefficient (1×10-6 cm/s) was calculated using the following equation
(§4) (1) The Efflux Ratio was Calculated Using the Following Equation
Efflux ratio=Papp(B to A)/Papp(A to B)
(§5) (2) where dCr/dt is the cumulative concentration of the compound in the receiver chamber as a function of time (in μM/s); Vr is the solution volume in the receiver chamber (0.1 ml on the apical side and 0.3 ml on the basolateral side); A is the surface area for the transport, that is, 0.11 cm2 for the area of the monolayer; and C0 is the initial concentration in the donor chamber (in μM).
Another series concerns the target PARP5a (Homo sapiens (Human), UniProt O95271). Put plainly: PARP fluorescence anisotropy binding assay, PARP5a.
Another series concerns BRCA2 (−/−) DLD1 cells. In words: PARP proliferation assay (7 day compound dosing), BRCA2 (−/−) DLD1. It counts as cell-based. The conditions noted are these: read-out: BRCA2 −/− DLD-1 prolif. 7 d IC50. As for the experimental part:
(§1) DLD1 and BRCA2 (−/−) DLD1 cells were harvested to a density of 5000 cells/ml and 2.5E4 cells/ml respectively in complete media, 40 μL/well seeded into 384-well plates (Greiner, Kremsmunster, Austria; 781090) using a Multidrop Combi then incubated at 37° C., 5% CO2 overnight. Next day (Day 1) using a Multidrop Combi add sytox green (5ul, 2 uM) and saponin (10 ul, 0.25% stock) to a day 0 plate, seal the plate using a black adhesive lid and incubate for >3 h at it. Cells were imaged using Cell Insight (Thermo Fisher) fitted with a 4x objective. Test compounds are added using an Echo 555 and placed in incubator maintained at 37° C., 5% CO2 and incubated for 7 days. On Day 8 add sytox green (5ul, 2 uM) and then saponin (10 ul, 0.25% stock) to plates, seal the plate using a black adhesive lid and incubate for >3 h at it. Read all cells on the Cell Insight with 4× Objective. The rate of proliferation is determined in Genedata by assessing the total cell number output from the Cell Insight for Day 0 and Day 8 plates.

Series [3] has as its target T1, hERG.
In a further series the target is PARP2 (Homo sapiens (Human), UniProt Q9UGN5). Put plainly: PARP fluorescence anisotropy binding assay, PARP2. The essentials:
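Recombinant full-length human PARP2 (6 nM before mixing) incubated 4 h with equal volume of 2 nM fluorescent probe in 50 mM Tris pH 8, 10 mM MgCl2, 150 mM NaCl, 0.001% Triton X100. Compound displacement measured as change in probe fluorescence anisotropy; IC50 from four-parameter logistic fit.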

Series [4] concerns MDCKII cells expressing MDR1 and BCRP.
Procedure: as §2, §3, §4
Efflux ratio=Papp(B to A)/Papp(A to B)
as §5
In another series the test system is DLD1 cells. In words: PARP proliferation assay (7 day compound dosing), WT DLD1. The conditions noted are these: read-out: WT DLD-1 prolif. 7 d IC50. It counts as cell-based. As for the experimental part: as §1
For series [5] the following is noted: 30 mg/m^2 per day, days 1, 2 and 3 every 21 days, in combination with radiation therapy; cited from earlier work.

Where two headings read alike, the source gives them in different places.

T1 sequence (Q12809 whole entry): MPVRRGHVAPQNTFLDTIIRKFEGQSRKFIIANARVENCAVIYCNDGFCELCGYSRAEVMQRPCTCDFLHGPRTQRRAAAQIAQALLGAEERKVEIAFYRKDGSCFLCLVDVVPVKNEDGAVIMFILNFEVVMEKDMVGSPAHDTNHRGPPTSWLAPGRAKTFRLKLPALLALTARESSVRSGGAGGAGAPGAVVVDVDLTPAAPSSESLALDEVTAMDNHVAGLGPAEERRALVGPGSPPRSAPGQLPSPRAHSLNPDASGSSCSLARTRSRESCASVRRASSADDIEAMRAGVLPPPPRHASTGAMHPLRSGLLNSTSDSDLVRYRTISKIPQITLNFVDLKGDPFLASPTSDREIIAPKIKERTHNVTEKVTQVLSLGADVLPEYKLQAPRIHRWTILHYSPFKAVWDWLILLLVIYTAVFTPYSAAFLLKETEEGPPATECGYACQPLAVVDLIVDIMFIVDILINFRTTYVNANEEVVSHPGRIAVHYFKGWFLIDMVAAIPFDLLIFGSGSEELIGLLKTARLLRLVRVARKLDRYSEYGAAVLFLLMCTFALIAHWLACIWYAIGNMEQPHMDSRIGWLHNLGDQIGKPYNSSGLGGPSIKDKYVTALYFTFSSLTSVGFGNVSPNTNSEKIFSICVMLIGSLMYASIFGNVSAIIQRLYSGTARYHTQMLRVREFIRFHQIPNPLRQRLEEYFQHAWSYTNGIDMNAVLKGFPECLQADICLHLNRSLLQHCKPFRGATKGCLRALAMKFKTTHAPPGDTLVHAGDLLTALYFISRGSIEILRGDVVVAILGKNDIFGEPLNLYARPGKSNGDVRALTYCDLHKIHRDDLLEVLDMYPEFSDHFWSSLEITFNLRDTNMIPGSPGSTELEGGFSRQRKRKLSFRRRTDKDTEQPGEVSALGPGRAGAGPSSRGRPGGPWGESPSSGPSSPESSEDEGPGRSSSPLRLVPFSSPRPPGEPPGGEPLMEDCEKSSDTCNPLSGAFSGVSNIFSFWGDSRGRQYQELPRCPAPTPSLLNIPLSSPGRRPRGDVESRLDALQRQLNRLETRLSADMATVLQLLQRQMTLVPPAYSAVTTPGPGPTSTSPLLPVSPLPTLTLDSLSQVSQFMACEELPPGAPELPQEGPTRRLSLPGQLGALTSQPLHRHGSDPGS
PARP6, sequence (Q2NL67 whole entry): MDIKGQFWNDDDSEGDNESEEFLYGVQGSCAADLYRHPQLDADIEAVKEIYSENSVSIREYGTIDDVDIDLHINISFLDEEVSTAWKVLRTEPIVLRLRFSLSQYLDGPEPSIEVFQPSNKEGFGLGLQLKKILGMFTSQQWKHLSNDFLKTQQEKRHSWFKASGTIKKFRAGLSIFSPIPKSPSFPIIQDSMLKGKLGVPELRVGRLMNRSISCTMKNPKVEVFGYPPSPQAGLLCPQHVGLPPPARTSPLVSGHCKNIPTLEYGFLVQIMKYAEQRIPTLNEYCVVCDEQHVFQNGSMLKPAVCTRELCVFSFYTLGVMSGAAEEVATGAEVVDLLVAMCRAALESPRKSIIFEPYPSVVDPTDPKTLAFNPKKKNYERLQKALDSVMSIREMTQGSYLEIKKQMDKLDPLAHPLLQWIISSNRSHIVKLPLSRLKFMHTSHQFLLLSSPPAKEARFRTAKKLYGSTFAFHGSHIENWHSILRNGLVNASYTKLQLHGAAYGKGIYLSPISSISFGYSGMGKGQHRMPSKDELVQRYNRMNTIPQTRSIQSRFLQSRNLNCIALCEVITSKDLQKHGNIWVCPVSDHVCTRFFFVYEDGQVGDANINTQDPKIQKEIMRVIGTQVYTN
PARP1, sequence (P09874 whole entry): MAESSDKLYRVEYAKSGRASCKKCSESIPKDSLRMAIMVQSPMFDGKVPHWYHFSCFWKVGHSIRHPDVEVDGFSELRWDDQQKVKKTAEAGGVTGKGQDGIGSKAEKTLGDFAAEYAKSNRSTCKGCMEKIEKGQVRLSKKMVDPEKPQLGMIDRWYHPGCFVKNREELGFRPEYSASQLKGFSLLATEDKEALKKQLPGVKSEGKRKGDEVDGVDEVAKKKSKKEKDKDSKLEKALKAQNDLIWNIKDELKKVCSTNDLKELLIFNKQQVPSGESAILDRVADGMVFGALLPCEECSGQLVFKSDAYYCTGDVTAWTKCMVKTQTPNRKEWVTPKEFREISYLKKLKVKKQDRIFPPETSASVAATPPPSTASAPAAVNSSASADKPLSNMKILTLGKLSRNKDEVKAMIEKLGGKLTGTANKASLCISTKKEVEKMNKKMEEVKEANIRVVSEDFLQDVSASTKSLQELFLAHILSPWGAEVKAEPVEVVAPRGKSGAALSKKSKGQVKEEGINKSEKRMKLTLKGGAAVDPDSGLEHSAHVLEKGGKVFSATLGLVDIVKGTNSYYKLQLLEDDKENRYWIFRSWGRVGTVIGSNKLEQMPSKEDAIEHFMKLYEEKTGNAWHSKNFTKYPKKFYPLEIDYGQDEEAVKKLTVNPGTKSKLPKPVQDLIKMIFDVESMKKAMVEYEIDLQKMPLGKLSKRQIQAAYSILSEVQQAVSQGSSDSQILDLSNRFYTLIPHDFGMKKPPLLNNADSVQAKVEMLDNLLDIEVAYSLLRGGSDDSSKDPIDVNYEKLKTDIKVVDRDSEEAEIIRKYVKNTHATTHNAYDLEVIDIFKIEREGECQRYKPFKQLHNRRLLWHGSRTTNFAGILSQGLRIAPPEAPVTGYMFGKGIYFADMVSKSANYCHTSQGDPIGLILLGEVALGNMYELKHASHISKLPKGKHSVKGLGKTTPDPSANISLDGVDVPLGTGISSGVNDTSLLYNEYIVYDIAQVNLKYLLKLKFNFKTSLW
PARP3, sequence (Q9Y6F1 whole entry): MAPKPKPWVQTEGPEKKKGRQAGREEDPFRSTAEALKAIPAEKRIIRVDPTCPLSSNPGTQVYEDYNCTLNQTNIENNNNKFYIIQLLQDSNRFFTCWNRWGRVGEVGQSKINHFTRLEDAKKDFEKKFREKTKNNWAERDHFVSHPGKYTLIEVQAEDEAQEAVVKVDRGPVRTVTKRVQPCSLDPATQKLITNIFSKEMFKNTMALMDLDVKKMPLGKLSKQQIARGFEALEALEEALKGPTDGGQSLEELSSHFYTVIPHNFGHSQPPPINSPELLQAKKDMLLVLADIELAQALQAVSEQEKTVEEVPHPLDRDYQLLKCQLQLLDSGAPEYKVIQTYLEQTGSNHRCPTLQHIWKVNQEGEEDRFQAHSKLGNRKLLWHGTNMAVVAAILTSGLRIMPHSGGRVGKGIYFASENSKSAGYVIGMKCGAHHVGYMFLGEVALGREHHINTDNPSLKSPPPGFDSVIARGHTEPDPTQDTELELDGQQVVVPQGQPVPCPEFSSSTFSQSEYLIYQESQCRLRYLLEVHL
PARP2, sequence (Q9UGN5 whole entry): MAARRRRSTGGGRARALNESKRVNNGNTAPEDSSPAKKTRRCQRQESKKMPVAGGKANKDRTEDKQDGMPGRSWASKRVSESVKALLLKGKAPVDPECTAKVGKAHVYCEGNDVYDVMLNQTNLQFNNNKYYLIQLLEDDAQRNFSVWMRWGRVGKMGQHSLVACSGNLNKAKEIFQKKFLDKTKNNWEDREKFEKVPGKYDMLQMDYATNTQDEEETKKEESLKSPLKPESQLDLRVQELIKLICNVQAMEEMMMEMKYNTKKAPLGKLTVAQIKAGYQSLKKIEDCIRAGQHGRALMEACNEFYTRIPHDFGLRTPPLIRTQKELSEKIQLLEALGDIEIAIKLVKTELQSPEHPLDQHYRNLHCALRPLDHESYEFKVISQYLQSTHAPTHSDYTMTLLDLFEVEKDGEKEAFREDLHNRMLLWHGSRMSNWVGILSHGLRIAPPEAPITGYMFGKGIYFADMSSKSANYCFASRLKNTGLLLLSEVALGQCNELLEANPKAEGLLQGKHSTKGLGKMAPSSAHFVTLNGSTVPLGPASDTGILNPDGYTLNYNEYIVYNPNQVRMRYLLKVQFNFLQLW
PARP5a, sequence (O95271 1112-1317): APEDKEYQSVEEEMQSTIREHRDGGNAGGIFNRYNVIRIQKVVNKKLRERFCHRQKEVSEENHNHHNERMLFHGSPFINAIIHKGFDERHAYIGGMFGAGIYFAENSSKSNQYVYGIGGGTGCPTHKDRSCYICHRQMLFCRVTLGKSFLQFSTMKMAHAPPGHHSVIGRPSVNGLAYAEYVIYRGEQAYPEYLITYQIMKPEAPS
Procedure for PARP1: Recombinant full length 6HIS tagged PARP1 protein was diluted to 6 nM with 50 mM Tris pH 8, 0.001% Triton X100, 10 mM MgCl2, 150 mM NaCl and incubated for four hours with an equivalent volume of 2 nM fluorescent probe diluted with 50 mM Tris pH 8, 0.001% Triton X100, 10 mM MgCl2, 150 mM NaCl. The final DMSO concentration of the probe was kept below 1% (v/v).
Procedure for PARP3: Recombinant full length PARP3 protein was diluted to 100 nM with 50 mM Tris pH 8, 0.001% Triton X100, 10 mM MgCl2, 150 mM NaCl and incubated for four hours with an equivalent volume of 6 nM fluorescent probe diluted with 50 mM Tris pH 8, 0.001% Triton X100, 10 mM MgCl2, 150 mM NaCl. The final DMSO concentration of the probe was kept below 1% (v/v).
Procedure for PARP5a: Recombinant PARP5a binding domain was diluted to 160 nM with 50 mM Tris pH 8, 0.001% Triton X100, 10 mM MgCl2, 150 mM NaCl and incubated for four hours with an equivalent volume of 6 nM fluorescent probe diluted with 50 mM Tris pH 8, 0.001% Triton X100, 10 mM MgCl2, 150 mM NaCl. The final DMSO concentration of the probe was kept below 1% (v/v).

Consider `CNC(=O)c1ccc(N2CCN(Cc3ccc4nc([C@H](C)F)c(=O)[nH]c4c3F)CC2)c(F)n1` (single isomer, unassigned) [Example 12, 6-fluoro-5-[4-[[5-fluoro-2-[(1S OR 1R)-1-fluoroethyl]-3-oxo-4H-quinoxalin-6-yl]methyl]piperazin-1-yl]-N-methyl-pyridine-2-carboxamide], for which the IC50 on PARP3 was 85 µM; on hERG [1] (read-out: hERG IC50), > 40 µM; at PARP6 it was > 100 µM; at PARP1, 0.015 µM; on PARP5a, > 100 µM; with BRCA2 (−/−) DLD1 cells, 0.008 µM. Further, the “MDCK-MDR1-BCRP Efflux Ratio” value in series [2] turned out to be 4.2.

Regarding `CNC(=O)c1ccc(N2CCN(Cc3ccc4nc([C@H](C)F)c(=O)[nH]c4c3F)CC2)c(F)n1` (single isomer, unassigned) [Example 13, 6-fluoro-5-[4-[[5-fluoro-2-[(1S OR 1R)-1-fluoroethyl]-3-oxo-4H-quinoxalin-6-yl]methyl]piperazin-1-yl]-N-methyl-pyridine-2-carboxamide], the IC50 is 62 µM on PARP3; > 40 µM on hERG [3]; > 100 µM on PARP6; 0.009 µM on PARP1; > 100 µM on PARP2; > 100 µM at PARP5a. The IC50 in the series with BRCA2 (−/−) DLD1 cells was 0.019 µM; in the series with DLD1 cells it was 22 µM. For the same compound, the “MDCK-MDR1-BCRP Efflux Ratio” value in [4] was found to be 3.0.

Take `CNC(=O)c1ccc(N2CCN(Cc3ccc4nc(C(C)F)c(=O)[nH]c4c3F)CC2)c(C)n1` (single isomer, unassigned) [Example 14, 5-[4-[[5-fluoro-2-[(1S OR 1R)-1-fluoroethyl]-3-oxo-4H-quinoxalin-6-yl]methyl]piperazin-1-yl]-N,6-dimethyl-pyridine-2-carboxamide]: the IC50 on PARP3 was 52 µM; on hERG [1] (read-out: hERG IC50) it was > 40 µM; at PARP6, > 100 µM; on PARP1, 0.013 µM; at PARP2, > 83 µM; at PARP5a, > 100 µM. Further, the IC50 in the series on BRCA2 (−/−) DLD1 cells came out at 0.015 µM. The “MDCK-MDR1-BCRP Efflux Ratio” value in series [2] came to 3.7.

As to `CNC(=O)c1ccc(N2CCN(Cc3ccc4nc(C(C)F)c(=O)[nH]c4c3F)CC2)c(C)n1` (single isomer, unassigned) [Example 15, 5-[4-[[5-fluoro-2-[(1S OR 1R)-1-fluoroethyl]-3-oxo-4H-quinoxalin-6-yl]methyl]piperazin-1-yl]-N,6-dimethyl-pyridine-2-carboxamide], the IC50 at PARP3 was 43 µM; at hERG [1] (read-out: hERG IC50), > 38 µM; at PARP6 it was > 100 µM; at PARP1, 0.012 µM; at PARP2 it was > 100 µM; on PARP5a, > 100 µM. The IC50 with BRCA2 (−/−) DLD1 cells was determined as 0.014 µM. In addition, in series [2], the “MDCK-MDR1-BCRP Efflux Ratio” value was 3.7.

Turning to `CNC(=O)c1ccc(N2CCN(Cc3ccc4ncc(=O)[nH]c4c3F)CC2)c(Cl)n1` [Example 34, 6-chloro-5-[4-[(5-fluoro-3-oxo-4H-quinoxalin-6-yl)methyl]piperazin-1-yl]-N-methyl-pyridine-2-carboxamide], the IC50 was 29 µM on hERG [1], 0.026 µM at PARP1 and > 100 µM on PARP2.

`O[C@H]([C@H](O)[C@@H]1CO1)[C@H]1CO1` [VAL-083, dianhydrogalactitol]: the safety and tolerability result in series [5] is “generally safe and well tolerated”.
